Results taken from patent publication US7772260B2, “Imidazo[2,1-b]-1,3,4-thiadiazole sulfonamides” (Aegera Therapeutics Inc., priority 2001, dated 2010).
Counter-ions that a name gives are not always drawn. Like-named read-outs stand apart in the source and are kept apart here.

Tested on: SCG neurons
Experiment: cells
Assay type: cell-based, Sprague Dawley rats
Settings: Rattus norvegicus, Neuron, read-out: IC(50), protection of SCG neurons from Taxol killing
Description: Taxol™ is regularly used in breast cancer chemotherapy. In cancer cells Taxol™ binds to the cyto-skeletal protein tubulin, thereby inhibiting normal microtubular assembly and inducing cellular apoptosis. Despite its potency as an anti-tumour agent, Taxol™ is also toxic to neurons, inducing dose limiting peripheral neuropathies. The addition of Taxol™ (100 ng/mL) to cultured SCG neurons induces the degradation or loss of upwards of 80% of the neurons.
FIG. 1 illustrates the protection provided by compound 1 (referred to here as AEG3482) against Taxol™ induced killing. PI Sprague Dawley rat SCG neurons were cultured and incubated with NGF (50 ng/mL) for 5 days.

[1] = Taxol™ (50 ng/mL), viability 48 hours later, MTS

COCCOCCOc1ccc(-c2cn3nc(S(N)(=O)=O)sc3n2)cc1 [Compound 30]
IC50 [1]: 10 µM

NS(=O)(=O)c1nn2cc(-c3ccc(OCCOCc4ccccc4)cc3)nc2s1 [Compound 31, 6-(4′-(2-Benzyloxyethoxy)phenyl)-imidazo[2,1-b]-1,3,4-thidiazole-2 sulfonamide]
IC50 [1]: 10 µM

NS(=O)(=O)c1nn2cc(-c3ccc(OCCCOCc4ccccc4)cc3)nc2s1 [Compound 32]
IC50 [1]: 10 µM

Cc1ccc(C23CC4CC(CC(C4)C2)C3)cc1-c1cn2nc(S(N)(=O)=O)sc2n1 [Compound 51]
IC50 [1]: 5 µM

NS(=O)(=O)c1nn2cc(-c3ccc(C(F)(F)F)cc3)nc2s1 [Compound 52, 6-(4-(Trifluoromethyl)phenyl)imidazo[2,1-b]-1,3,4-thiadiazole-2-sulfonamide]
IC50 [1]: 3 µM

NS(=O)(=O)c1nn2cc(-c3cc(C(F)(F)F)cc(C(F)(F)F)c3)nc2s1 [Compound 54, 6-(3,5-di(trifluoromethyl)phenyl)imidazo[2,1-b]-1,3,4-thiadiazole-2-sulfonamide]
IC50 [1]: 10 µM

CC(C)(C)c1cc(-c2cn3nc(S(N)(=O)=O)sc3n2)cc(C(C)(C)C)c1O [Compound 55, 6-(3,4-Di-tert-butyl-4-hydroxyphenyl)imidazo[2,1-b]-1,3,4-thiadiazole-2-sulfonamide]
IC50 [1]: 15 µM

CC1(C)CCC(C)(C)c2cc(-c3cn4nc(S(N)(=O)=O)sc4n3)ccc21 [Compound 56, 6-(5,5,8,8-Tetramethyl-5,6,7,8-tetrahydronaphthalen-2-yl)imidazo[2,1-b]-1,3,4-thiadiazole-2-sulfonamide]
IC50 (48 h): 3 µM

Cc1cc2c(cc1-c1cn3nc(S(N)(=O)=O)sc3n1)C(C)(C)CCC2(C)C [Compound 57]
IC50 (48 h): 6 µM

CC(=O)N[C@@H](C)c1ccc(-c2cn3nc(S(N)(=O)=O)sc3n2)cc1 [Compound 58, 6-(4-(S-1-acetamidoethyl)phenyl)imidazo[2,1-b]-1,3,4-thiadiazole-2-sulfonamide]
IC50 [1]: 30 µM

NS(=O)(=O)c1nn2cc(C(F)(F)F)nc2s1 [Compound 59]
IC50 [1]: 10 µM

NS(=O)(=O)c1nn2cc(C34CC5CC(CC(C5)C3)C4)nc2s1 [Compound 60, 6-(1-adamantyl)imidazo[2,1-b]-1,3,4-thiadiazole-2-sulfonamide]
IC50 [1]: 25 µM

NS(=O)(=O)c1nn2cc(-c3cccc4ccccc34)nc2s1 [Compound 61, 6-(1-Naphthyl)imidazo[2,1-b]-1,3,4-thiadiazole-2-sulfonamide]
IC50 [1]: 10 µM

NS(=O)(=O)c1nn2cc(-c3ccc4ccccc4c3)nc2s1 [Compound 62, 6-(2-Naphthyl)imidazo[2,1-b]-1,3,4-thiadiazole-2-sulfonamide]
IC50 [1]: 15 µM

COc1ccc2ccc(-c3cn4nc(S(N)(=O)=O)sc4n3)cc2c1Br [Compound 63, 6-(8-Bromo-7-methoxylnaphth-2-yl)imidazo[2,1-b]-1,3,4-thiadiazole-2-sulfonamide]
IC50 [1]: 7 µM

NS(=O)(=O)c1nn2cc(-c3cc4ccc5cccc6ccc(c3)c4c56)nc2s1 [Compound 64, 6-pyrenylimidazo[2,1-b]-1,3,4-thiadiazole-2-sulfonamide]
IC50 (48 h): 10 µM

Cc1c(-c2ccccc2)nc2sc(S(N)(=O)=O)nn12 [Compound 65, 5-Methyl-6-phenyl-imidazo[2,1-b]-1,3,4-thiadiazole-2-sulfonamide]
IC50 [1]: 15 µM

NS(=O)(=O)c1nn2c(-c3ccccc3)c(-c3ccccc3)nc2s1 [Compound 66, 5,6-Diphenyl-imidazo[2,1-b]-1,3,4-thiadiazole-2-sulfonamide]
IC50 [1]: 20 µM

NS(=O)(=O)c1nn2cc(-c3ccc(N4CCCCC4)cc3)nc2s1 [Compound 67, 6-(4-Piperidinophenyl)imidazo[2,1-b]-1,3,4-thiadiazole-2-sulfonamide]
IC50 [1]: 10 µM

NS(=O)(=O)c1nn2cc(-c3ccc(N4CCOCC4)cc3)nc2s1 [Compound 68, 6-(4-Morpholinophenyl)imidazo[2,1-b]-1,3,4-thiadiazole-2-sulfonamide]
IC50 [1]: 7 µM

Nc1ccc(-c2cn3nc(S(N)(=O)=O)sc3n2)cc1 [Compound 70, 6-(4-Aminophenyl)imidazo[2,1-b]-1,3,4-thiadiazole-2-sulfonamide]
IC50 [1]: 22 µM

NS(=O)(=O)c1nn2cc(-c3ccc(B(O)O)cc3)nc2s1 [Compound 71]
IC50 [1]: > 30 µM

NS(=O)(=O)c1nn2cc(-c3ccc(-c4c(F)c(F)c(F)c(F)c4F)cc3)nc2s1 [Compound 73, 6-(4-(2,3,4,5,6-tetrafluorophenyl)phenyl)imidazo[2,1-b]-1,3,4-thiadiazole-2-sulfonamide]
IC50 [1]: 2 µM

COC(=O)COc1ccc(-c2cn3nc(S(N)(=O)=O)sc3n2)cc1 [Compound 101]
IC50 [1]: > 30 µM

NS(=O)(=O)c1nn2cc(-c3ccc(OCC(=O)O)cc3)nc2s1 [Compound 102]
IC50 [1]: > 30 µM

COC(=O)COc1ccc(-c2nc3sc(S(N)(=O)=O)nn3c2C)cc1 [Compound 103]
IC50 [1]: > 30 µM

Cc1ccc(-c2nc3sc(S(N)(=O)=O)nn3c2C)cc1Cl [Compound 104, 6-(3-chloro-4-methylphenyl)-5-methylimidazo[2,1-b]-1,3,4-thiadiazole-2-sulfonamide]
IC50 [1]: 7 µM

NS(=O)(=O)c1nn2cc(-c3ccncc3)nc2s1 [Compound 107, 6-(4-Pyridyl)imidazo[2,1-b]-1,3,4-thiadiazole-2-sulfonamide]
IC50 [1]: 20 µM

NS(=O)(=O)c1nn2cc(-c3cnccn3)nc2s1 [Compound 108]
IC50 [1]: 5 µM

NS(=O)(=O)c1nn2cc(-c3ccc4c(c3)NC(=O)CO4)nc2s1 [Compound 110]
IC50 [1]: > 30 µM

NS(=O)(=O)c1nn2cc(-c3cccs3)nc2s1 [Compound 112, 6-(2-Thiophenyl)-imidazo[2,1-b]-1,3,4-thiadiazole-2-sulfonamide]
IC50 [1]: 5 µM

NS(=O)(=O)c1nn2cc(-c3ccc(-c4ccccc4)s3)nc2s1 [Compound 113, 6-(5-Phenylthiophen-2-yl)-imidazo[2,1-b]-1,3,4-thiadiazole-2-sulfonamide]
IC50 [1]: 7 µM

NS(=O)(=O)c1nn2cc(-c3ccc([N+](=O)[O-])s3)nc2s1 [Compound 114, 6-(5-Nitro-2-thiophenyl)-imidazo[2,1-b]-1,3,4-thiadiazole-2-sulfonamide hydrobromide]
IC50 [1]: 7 µM

Cc1c(-c2cn3nc(S(N)(=O)=O)sc3n2)sc2ccccc12 [Compound 115, 6-(3-Methylbenzo[b]thiophen-2-yl)imidazo[2,1-b]-1,3,4-thiadiazole-2-sulfonamide]
IC50 [1]: 7 µM

NS(=O)(=O)c1nn2cc(-c3csc4ccccc34)nc2s1 [Compound 116, 6-(Benzo[b]thiophen-3-yl)imidazo[2,1-b]-1,3,4-thiadiazole-2-sulfonamide]
IC50 [1]: 7 µM

NS(=O)(=O)c1nn2cc(-c3cc(-c4ccccc4)no3)nc2s1 [Compound 117, 6-(3-Phenylisoxazol-5-yl)imidazo[2,1-b]-1,3,4-thiadiazole-2-sulfonamide]
IC50 [1]: 3 µM

Cc1onc(-c2ccccc2)c1-c1cn2nc(S(N)(=O)=O)sc2n1 [Compound 118, 6-(5-Methyl-3-phenylisoxazol-4-yl)imidazo[2,1-b]-1,3,4-thiadiazole-2-sulfonamide]
IC50 [1]: 17 µM

Cc1c(-c2cn3nc(S(N)(=O)=O)sc3n2)cnn1-c1ccccc1 [Compound 120, 6-(5-methyl-1-phenyl-1H-pyrazol-4-yl)imidazo[2,1-b]-1,3,4-thiadiazole-2-sulfonamide]
IC50 [1]: 7 µM

NS(=O)(=O)c1nn2cc(-c3nccs3)nc2s1 [Compound 121, 6-(Thiaxol-2-yl)imidazo[2,1-b]-1,3,4-thiadiazole-2-sulfonamide]
IC50 [1]: 2 µM

Cc1nc(C)c(-c2cn3nc(S(N)(=O)=O)sc3n2)s1 [Compound 122, 6-(2,4-Thiaxol-5-yl)imidazo[2,1-b]-1,3,4-thiadiazole-2-sulfonamide]
IC50 [1]: 8 µM

NS(=O)(=O)c1nn2c(Cl)c(-c3ccccc3)nc2s1 [Compound 123, 5-Chloro-6-phenyl-imidazo[2,1-b]-1,3,4-thiadiazole-sulfonamide]
IC50 [1]: > 30 µM

NS(=O)(=O)c1nn2c(Br)c(-c3ccccc3)nc2s1 [Compound 124, 5-Bromo-6-phenyl-imidazo[2,1-b]-1,3,4-thiadiazole-2-sulfonamide hydrobromide]
IC50 [1]: 3 µM

NS(=O)(=O)c1nn2c(Br)c(-c3ccccn3)nc2s1 [Compound 125, 5-Bromo-6-(2-pyridyl)imidazo[2,1-b]-1,3,4-thiadiazole-2-sulfonamide hydrobromide]
IC50 [1]: 3 µM

NS(=O)(=O)c1nn2c(Br)c(-c3ccc(Br)cc3)nc2s1 [Compound 128, 5-Bromo-6-(4-bromophenyl)imidazo[2,1-b]-1,3,4-thiadiazole-2-sulfonamide hydrobromide]
IC50 [1]: 2 µM

COc1cccc(-c2nc3sc(S(N)(=O)=O)nn3c2Br)c1Br [Compound 129, 5-Bromo-6-(2-bromo3-methoxyphenyl)imidazo[2,1-b]-1,3,4-thiadiazole-2-sulfonamide hydrobromide]
IC50 [1]: 7 µM

NS(=O)(=O)c1nn2c(Br)c(-c3ccc4ccccc4c3)nc2s1 [Compound 130, 5-Bromo-6-(2-naphthyl)imidazo[2,1-b]-1,3,4-thiadiazole-2-sulfonamide hydrobromide]
IC50 [1]: 2 µM

NS(=O)(=O)c1nn2c(Cl)c(-c3ccc(-c4ccccc4)cc3)nc2s1 [Compound 131, 5-Chloro-6-(biphenyl)imidazo[2,1-b]-1,3,4-thiadiazole-2-sulfonamide hydrobromide]
IC50 [1]: 3 µM

NS(=O)(=O)c1nn2c(Br)c(-c3ccc(-c4ccccc4)cc3)nc2s1 [Compound 132, 5-Bromo-6-(biphenyl)imidazo[2,1-b]-1,3,4-thiadiazole-2-sulfonamide hydrobromide]
IC50 [1]: 1 µM
